Tests used:
[1] = test system: cyclin D3; test: Cyclin D3 expression in mitogen-stimulated lymphocytes, flow cytometry; type: cell-based, Human; settings: 10 μg/ml
Method: (§1) Human peripheral blood lymphocytes, obtained from healthy volunteers by venipuncture, were isolated by density gradient centrifugation. The cells were washed twice with phosphate-buffered saline (PBS), resuspended in RPMI 1640 medium supplemented with 10% fetal calf serum, 100 units/ml penicillin, 100 μg/ml streptomycin and 2 mM L-glutamine at a density of 10^6 cells/ml, treated with 10 μg/ml of phytohemagglutinin (PHA) and incubated at 37.5° C. in the mixture of 95% air and 5% CO2 for the periods of time shown in the respective figure legends. The medium, supplements, and antibiotics were obtained from Life Technologies (Grand Island, N.Y.), PHA from Sigma Chemical Co. (St. Louis, Mo.).
After cell fixation (as described above) the cells were washed twice with PBS, suspended in 1 ml of 0.25% Triton X-100 in PBS, kept on ice for 5 min, centrifuged (300 g; 5 min) and the cell pellet resuspended in 100 μl of PBS containing 0.5 μg of the anti-cyclin D3 mAb (clone G107-565, mouse IgG,; PharMingen cat. No. 14781) and 1% BSA and incubated for 2 hours at room temperature. […] The cells were rinsed again, resuspended in 5 μg/ml of PI and 0.1% RNase in PBS and incubated at room temperature for 20 min prior to fluorescence measurements. Isotype-matched IgG (Sigma) was used as a control to define the background fluorescence. […]

[2] = test system: underphosphorylated pRB; test: pRB phosphorylation in mitogen-stimulated lymphocytes, anti-pRB^P− mAb flow cytometry; type: cell-based, Human
Method: as §1
Stock solution of staurosporine (STP; Kamiya Biomedical Co., Thousand Oaks, Calif.) was made in dimethyl sulfoxide (DMSO) at a concentration 0.2 mM and was stored at −20° C.
The cells were washed with PBS and fixed in suspension in 1% formaldehyde in PBS for 15 min on ice. The cells were then washed with PBS and resuspended in ice-cold 80% ethanol for up to 24 h. After fixation the cells were rinsed twice with PBS and resuspended in 100 μl of PBS containing 0.25% Triton X-100 (Sigma), 1% bovine serum albumin (BSA; Sigma) and 1.2 μg/ml of the anti-pRB^T mAb (clone G3-245; PharMingen cat. No. 14001A) conjugated with CYCHROME® and/or with 1 μg/ml of anti-pRB^P− mAb (clone G99-549; PharMingen cat. No. 14441A), conjugated with FITC and incubated for 2 hours at room temperature. The cells were then rinsed with PBS containing 1% BSA and their fluorescence was measured by flow cytometry.
Cellular fluorescence was measured with the ELITE ESP flow cytometer/cell sorter (Coulter Inc., Miami, Fla.) using either an argon ion laser (emission at 488 nm) alone or combined with a helium-cadmium laser (emitting UV light). In the first case, fluorescence signals were collected using the standard configuration of the flow cytometer (green fluorescence, representing FITC labeled anti-pRB^P− mAb; red fluorescence representing CyChrome tagged anti-pRB^T mAb). In the second case, DNA content was analyzed based on DAPI fluorescence (blue emission) excited by UV light, while the anti-pRB^P− mAb FITC-related emission and anti-pRB^T CYCHROME®-related emission was excited with blue light laser. Unless noted, the procedures for multicolor measurement of cellular fluorescence and multivariate cell analysis were essentially as described in Juan et al., Cell. Prolif. 29:259–266 (1996) and Juan et al., Exper. Cell Res. 227:197–202 (1996). The experiments were repeated several times, on lymphocytes obtained from three different donors, yielding essentially identical results.

[3] = test system: total pRB; test: Total pRB in mitogen-stimulated lymphocytes, anti-pRB^T mAb flow cytometry; type: cell-based, Human; settings: 10 μg/ml, throughout all times of exposure
Method: as §1
The cells were washed with PBS and fixed in suspension in 1% formaldehyde in PBS for 15 min on ice. […] The cells were then rinsed with PBS containing 1% BSA and their fluorescence was measured by flow cytometry.
Cellular fluorescence was measured with the ELITE ESP flow cytometer/cell sorter (Coulter Inc., Miami, Fla.) using either an argon ion laser (emission at 488 nm) alone or combined with a helium-cadmium laser (emitting UV light). In the first case, fluorescence signals were collected using the standard configuration of the flow cytometer (green fluorescence, representing FITC labeled anti-pRB^P− mAb; red fluorescence representing CyChrome tagged anti-pRB^T mAb). […]

[4] = test system: lymphocytes; settings: 20 nM; cited from earlier work
[5] = test system: cyclin D3; settings: lymphocytes, 20 nM; cited from earlier work
[6] = test system: total pRB; test: pRB^T in differentiating HL-60 cells, flow cytometry; type: cell-based, human; settings: RA 5×10^−7 M 5 days, vitamin D3 10^−8 M 6 days
Method: (§2) The human promyelocytic leukemic cell line HL-60 was kindly provided by Dr. Harry A. Crissman of the Los Alamos National Laboratory (Los Alamos, N. Mex.). The cells were maintained in RPMI 1640 supplemented with 10% fetal calf serum, 100 units/ml penicillin, 100 μg/ml streptomycin, and 2 mM L-glutamine at a density between 2 and 8×10^5 cells/ml at 37.5° C. in the mixture of 95% air and 5% CO2 for the periods of time described in the legends to the respective figures. During the exponential phase of cell growth, at densities below 8×10^5 cells/ml, the mean duration of the cell cycle of these cells is 23 hours (estimated as described in Darzynkiewicz, “Mammalian cell cycle analysis,” in The Cell Cycle: A Practical Approach, P. Fantes and R. Brooks, Eds., pp. 45–68 (Oxford Univ. Press, Oxford, UK, (1993)), and the mean duration of G1, S, G2, and M 11, 9, 2, and 1 h, respectively. The medium, supplements, and antibiotics were obtained from Life Technologies (Grand Island, N.Y.).
(§3) All-trans retinoic acid (RA), 1,25-dihydroxy vitamin D3 (vitamin D3), and phorbol myristate acetate (PMA) were purchased from Sigma Chemical Co. (St. Louis, Mo.). […] Control cells were treated with an equivalent concentration of ethanol (<0.02%). Stock solution of PMA at 1.6 mM was prepared in DMSO, stored at −20° C. in the dark, and used at a final concentration of 4×10^−8 M. The cultures were kept shielded from light. […]
(§4) Methods were essentially as described in Example 1. […] The cells were then rinsed with PBS containing 1% BSA, counterstained with 4,6-diamidino-2-phenyl indole (DAPI) (Molecular Probes Inc., Eugene, Oreg.), and their fluorescence was measured by flow cytometry.
(§5) Cellular fluorescence was measured with the ELITE ESP flow cytometer/cell sorter (Coulter Inc., Miami, Fla.) using an argon ion laser (emission at 488 nm) combined with a helium-cadmium laser (emitting UV light). DNA content was analyzed based on DAPI fluorescence (blue emission) excited by UV light, while the anti-pRb^P− mAb (FITC)-related emission and anti-pRB^T (CYCHROME®)-related emission was excited with blue light laser. To obtain the mean fluorescence values as shown in FIGS. 7–10, the cells were gated based on differences in their DNA content to distinguish cells in G1, S, and G2/M, and from the mean values of the FITC fluorescence the mean value of the respective control cells (FITC-conjugated isotype-matched IgG1) in the same phase of the cycle was subtracted. The mean values of S phase cells were multiplied by 0.75 and of G2/M cells by 0.5 to express the pRB-associated cell fluorescence per unit of DNA. The data were normalized to the mean fluorescence value of G1 cells from the untreated, control culture (100), as shown in FIGS. 7–10.

[7] = test system: HL-60 cells; test: Cell cycle arrest and apoptosis of HL-60 cells during induced differentiation; type: cell-based, human
Method: Control cells were treated with an equivalent concentration of ethanol (<0.02%). […]

[8] = test system: hypophosphorylated pRB; test: pRB^P− in differentiating HL-60 cells, flow cytometry; type: cell-based, human; settings: RA 5×10^−7 M 5 days, vitamin D3 10^−8 M 6 days
Method: as §2, §3, §4, §5

[9] = test system: pRB; test: pRB^P−/pRB^T ratio in differentiating HL-60 cells, flow cytometry; type: cell-based, human; settings: RA 5×10^−7 M 5 days, vitamin D3 10^−8 M 6 days
Method: Briefly, the cells were fixed in suspension in 1% formaldehyde in PBS for 15 min on ice, then washed with PBS, and resuspended in ice-cold 80% ethanol for up to 24 h. […] The cells were then rinsed with PBS containing 1% BSA, counterstained with 4,6-diamidino-2-phenyl indole (DAPI) (Molecular Probes Inc., Eugene, Oreg.), and their fluorescence was measured by flow cytometry.

[10] = test system: pRB; test: Western blot of pRB in HL-60 cells with anti-pRB^P− and anti-pRB^T mAbs; type: cell-based, human; settings: HL-60, treated versus control
Source text: FIG. 10 presents a Western blot showing reactivity of anti-pRB^P− mAb(A) and anti-pRB^T mAb with proteins extracted from control (CON) and PMA-treated cells.
To reveal specificity of the antibodies used in these experiments, a standard Western blotting procedure was used on cellular lysates, as described in Gong et al., Cell Growth Differ. 6:1485–1493 (1995).

phytohemagglutinin [PHA]
proportion of cyclin D3-positive cells ([1]; at 12 h): ~70% | proportion of cyclin D3-positive cells ([1]; at 24 h): 40% | percentage of anti-pRB^P− mAb negative cells ([2]; 10 μg/ml, at 24 h): 45% | fraction of lymphocytes that did not react with anti-pRB^P− mAb ([2]; 10 μg/ml, between 4 and 12 hours): ~80% | percentage of anti-pRB^P− mAb negative cells ([2]; 10 μg/ml, decreasing from 98 between 3 and 4 hours of stimulation): about 20% | percentage of anti-pRB^P− mAb negative cells ([2]; 10 μg/ml, up to 14 h): about 20% | frequency of cells reactive with anti-pRB^T mAb [3]: over 80%

CN[C@@H]1C[C@H]2O[C@@](C)([C@@H]1OC)n1c3ccccc3c3c4c(c5c6ccccc6n2c5c31)C(=O)NC4 [STP, staurosporine]
arrest of lymphocytes in cell cycle [4]: arrests lymphocytes in G1 | appearance of the cell population unreactive with anti-pRB^P− mAb (pRB phosphorylation) ([2]; lymphocytes stimulated with PHA 24 hours, 20 nM): precluded the appearance of the cell population unreactive with anti-pRB^P− mAb | induction of cyclin D3 [5]: does not interfere with the induction of cyclin D3

C=C1/C(=C\C=C2/CCC[C@]3(C)[C@@H]([C@H](C)CCCC(C)(C)O)CC[C@@H]23)C[C@@H](O)C[C@@H]1O [vitamin D3, 1,25-dihydroxy vitamin D3]
increase in pRB^T of G0/1 cells versus untreated cultures [6]: 20% | pRB^T of S and G2/M cells versus untreated cultures [6]: nearly twofold higher | cell cycle arrest on induced differentiation [7]: cell arrest primarily in G0/1 | increase in pRB^P− of G0/1 cells [8]: fourfold | pRB^P− of S and G2/M phase cells versus control cultures [8]: over an order of magnitude higher

CC1=C(/C=C/C(C)=C/C=C/C(C)=C/C(=O)O)C(C)(C)CCC1 [RA, All-trans retinoic acid]
increase in pRB^T of G0/1 cells versus untreated cultures [6]: 60% | pRB^T of S and G2/M cells versus untreated cultures [6]: nearly twofold higher | cell cycle arrest on induced differentiation [7]: cell arrest primarily in G0/1 | pRB^P−/pRB^T level of S and G2/M phase cells versus control [9]: over fivefold higher | increase in pRB^P− of G0/1 cells [8]: fourfold | pRB^P− of S and G2/M phase cells versus control cultures [8]: over an order of magnitude higher

CCCCCCCCCCCCCC(=O)O[C@@H]1[C@@H](C)[C@@]2(O)[C@@H](C=C(CO)C[C@]3(O)C(=O)C(C)=C[C@@H]23)[C@@H]2C(C)(C)[C@]12OC(C)=O [PMA, phorbol myristate acetate]
cell cycle arrest on induced differentiation [7]: cell arrest primarily in G0/1 | bands of hypophosphorylated, hyperphosphorylated and total pRB, Western blot [10]: increased intensity bands

Source: patent US7070943B2 (priority 1998, dated 2006)
